Measured values taken from patent US11939314B2, “Quinolin-2-one derivatives” (MERCK PATENT GMBH, priority 2016, dated 2024).
pIC50: −log10 of the molar value.

Experiments:
PDGFRalpha(V561D) = target: T1, PDGFRalpha(V561D) (Homo sapiens, UniProt P16234, V561D); test: PDGFRalpha(V561D) assay; assay type: biochemical; settings: recombinant human PDGFRalpha aa 550-end, 200 μM ATP, 1.4E-06 means 1.4×10^−6, read-out: Inhibition (IC50) of PDGFRα (V561D)
T1 construct: recombinant human PDGFRalpha, amino acids 550end containing the V561 D mutation; 6His (N)
T1 sequence (P16234 550-1089 V561D): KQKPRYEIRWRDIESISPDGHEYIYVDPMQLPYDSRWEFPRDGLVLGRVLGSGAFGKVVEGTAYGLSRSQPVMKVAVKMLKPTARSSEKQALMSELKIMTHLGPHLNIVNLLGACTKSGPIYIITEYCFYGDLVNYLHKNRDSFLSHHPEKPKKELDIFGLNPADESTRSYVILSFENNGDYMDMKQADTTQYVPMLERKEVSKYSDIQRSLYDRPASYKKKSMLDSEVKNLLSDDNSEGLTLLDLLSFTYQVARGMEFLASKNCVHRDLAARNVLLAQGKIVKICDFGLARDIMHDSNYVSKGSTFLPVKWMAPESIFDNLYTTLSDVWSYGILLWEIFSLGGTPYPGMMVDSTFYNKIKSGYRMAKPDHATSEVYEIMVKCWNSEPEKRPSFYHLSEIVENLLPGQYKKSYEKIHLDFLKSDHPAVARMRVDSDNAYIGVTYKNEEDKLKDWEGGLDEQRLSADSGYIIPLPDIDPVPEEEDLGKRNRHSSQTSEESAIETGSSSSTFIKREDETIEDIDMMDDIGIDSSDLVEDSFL
How it was run: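 Radiometric filter-binding assay: substrate phosphorylation by recombinant N-His-tagged human PDGFRα 550-end V561D was quenched with 3% phosphoric acid after 40 min at room temperature, then counted.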

c-Kit(V654A) = target: T2, c-Kit(V654A) (Homo sapiens, UniProt P10721, V654A); test: c-Kit(V654A) assay; assay type: biochemical; settings: recombinant human c-Kit aa 544-end, 200 μM ATP, 1.4E-06 means 1.4×10^−6, read-out: Inhibition (IC50) of c-KIT (V654A)
T2 construct: amino acids 544-end containing the V654A mutation; GST (N)
T2 sequence (P10721 544-976 V654A): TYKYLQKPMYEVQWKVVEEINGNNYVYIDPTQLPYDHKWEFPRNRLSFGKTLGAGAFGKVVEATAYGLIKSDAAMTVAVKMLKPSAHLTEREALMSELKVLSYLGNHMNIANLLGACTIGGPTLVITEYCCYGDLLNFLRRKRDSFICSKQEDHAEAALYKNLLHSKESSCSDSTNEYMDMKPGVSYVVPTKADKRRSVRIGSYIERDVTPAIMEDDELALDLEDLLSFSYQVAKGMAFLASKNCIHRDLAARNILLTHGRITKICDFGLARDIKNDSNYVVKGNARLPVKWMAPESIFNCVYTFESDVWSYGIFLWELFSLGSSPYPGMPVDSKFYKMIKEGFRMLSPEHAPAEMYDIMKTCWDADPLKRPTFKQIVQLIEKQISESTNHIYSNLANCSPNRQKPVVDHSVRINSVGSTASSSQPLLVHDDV
How it was run: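 Radiometric filter-binding read-out: substrate 33P incorporation counted by scintillation after P30 filtermat washes in 75 mM phosphoric acid and methanol. Enzyme: N-GST recombinant human c-Kit aa 544-end carrying V654A.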

| pIC50 (PDGFRalpha(V561D)) | pIC50 (c-Kit(V654A)) | SMILES |
| --- | --- | --- |
| 7.48 | 7.52 | CN1CCN(C(=O)COc2ccc(-n3cc(-c4cc5cc(F)ccc5[nH]c4=O)nn3)cc2)CC1 [A165, 6-fluoro-3-(1-{4-[2-(4-methyl-piperazin-1-yl)-2-oxo-ethoxy]-phenyl}-1H-[1,2,3]triazol-4-yl)-1H-quinolin-2-one] |
| 7.37 | 8.10 | CN1CCC(CCOc2ccc(-n3cc(-c4cc5cc(F)c(F)cc5[nH]c4=O)nn3)cc2)CC1 [A166, 6,7-difluoro-3-(1-{4-[2-(1-methyl-piperidin-4-yl)-ethoxy]-phenyl}-1H-[1,2,3]triazol-4-yl)-1H-quinolin-2-one] |
| 7.68 | 7.74 | CN1CCN(C(=O)COc2ccc(-n3cc(-c4cc5cc(F)c(F)cc5[nH]c4=O)nn3)cc2)CC1 [A167, 6,7-difluoro-3-(1-{4-[2-(4-methyl-piperazin-1-yl)-2-oxo-ethoxy]-phenyl}-1H-[1,2,3]triazol-4-yl)-1H-quinolin-2-one] |
| 7.00 | 7.43 | Cc1ccc2[nH]c(=O)c(-c3cn(-c4ccc(C(=O)N5CCN(C)CC5)cc4)nn3)cc2c1 [A168, 6-methyl-3-{1-[4-(4-methyl-piperazine-1-carbonyl)-phenyl]-1H-[1,2,3]triazol-4-yl}-1H-quinolin-2-one] |
| 6.37 | 7.85 | CN1CCN(C(=O)Cc2ccc(-n3cc(-c4cc5cc(F)c(F)cc5[nH]c4=O)nn3)cc2)CC1 [A169, 6,7-difluoro-3-(1-{4-[2-(4-methyl-piperazin-1-yl)-2-oxo-ethyl]-phenyl}-1H-[1,2,3]triazol-4-yl)-1H-quinolin-2-one] |
| 4.92 | 5.74 | CN1CCN(C(=O)c2ccc(-n3cc(-c4cc5ccc(C(F)(F)F)cc5[nH]c4=O)nn3)cc2)CC1 [A170, 3-{1-[4-(4-methyl-piperazine-1-carbonyl)-phenyl]-1H-[1,2,3]triazol-4-yl}-7-trifluoromethyl-1H-quinolin-2-one] |
| 6.72 | 7.77 | CN(C)C1CCN(C(=O)c2ccc(-n3cc(-c4cc5cc(F)c(F)cc5[nH]c4=O)nn3)cc2)CC1 [A171, 3-{1-[4-(4-dimethylamino-piperidine-1-carbonyl)-phenyl]-1H-[1,2,3]triazol-4-yl}-6,7-difluoro-1H-quinolin-2-one] |
| 7.60 | 8.20 | CN(C)C1CCN(C(=O)c2ccc(-n3cc(-c4cc5cc(F)ccc5[nH]c4=O)nn3)cc2)CC1 [A172, 3-{1-[4-(4-dimethylamino-piperidine-1-carbonyl)-phenyl]-1H-[1,2,3]triazol-4-yl}-6-fluoro-1H-quinolin-2-one] |
| 8.22 | 7.04 | COCCN1CCN(C(=O)c2ccc(-n3cc(-c4cc5cc(F)cnc5[nH]c4=O)nn3)cc2)CC1 [A175, 6-Fluoro-3-(1-{4-[4-(2-methoxy-ethyl)-piperazine-1-carbonyl]-phenyl}-1H-[1,2,3]triazol-4-yl)-1H-[1,8]naphthyridin-2-one] |
| 8.80 | 8.17 | CN1CCN(CCOc2ccc(-n3cc(-c4cc5cc(F)ccc5[nH]c4=O)nn3)cc2)CC1 [A176, 6-fluoro-3-(1-{4-[2-(4-methyl-piperazin-1-yl)-ethoxy]-phenyl}-1H-[1,2,3]triazol-4-yl)-1H-quinolin-2-one] |
| 7.24 | 6.77 | N#Cc1ccc2cc(-c3cn(-c4ccc(C(=O)N5CCOCC5)cc4)nn3)c(=O)[nH]c2c1 [A177, 3-{1-[4-(morpholine-4-carbonyl)-phenyl]-1H-[1,2,3]triazol-4-yl}-2-oxo-1,2-dihydro-quinoline-7-carbonitrile] |
| 8.89 | 8.41 | CN1CCN(C(=O)Cn2ccc3cc(-n4cc(-c5cc6cc(F)ccc6[nH]c5=O)nn4)ccc32)CC1 [A178, 6-fluoro-3-(1-{1-[2-(4-methyl-piperazin-1-yl)-2-oxo-ethyl]-1H-indol-5-yl}-1H-[1,2,3]triazol-4-yl)-1H-quinolin-2-one] |
| 8.80 | 7.85 | CC(=O)O[C@@H]1CCN(C(=O)c2ccc(-n3cc(-c4cc5cc(F)ccc5[nH]c4=O)nn3)cc2)C1 [A179, acetic acid (R)-1-{4-[4-(6-fluoro-2-oxo-1,2-dihydro-quinolin-3-yl)-[1,2,3]triazol-1-yl]-benzoyl}-pyrrolidin-3-yl ester] |
| 9.30 | 8.02 | CC(=O)O[C@H]1CCN(C(=O)c2ccc(-n3cc(-c4cc5cc(F)ccc5[nH]c4=O)nn3)cc2)C1 [A180, acetic acid (S)-1-{4-[4-(6-fluoro-2-oxo-1,2-dihydro-quinolin-3-yl)-[1,2,3]triazol-1-yl]-benzoyl}-pyrrolidin-3-yl ester] |
| 9.15 | 8.07 | O=C(c1ccc(-n2cc(-c3cc4cc(F)ccc4[nH]c3=O)nn2)cc1)N1CC[C@@H](O)C1 [A181, 6-fluoro-3-{1-[4-((R)-3-hydroxy-pyrrolidine-1-carbonyl)-phenyl]-1H-[1,2,3]triazol-4-yl}-1H-quinolin-2-one] |
| 8.92 | 7.89 | O=C(c1ccc(-n2cc(-c3cc4cc(F)ccc4[nH]c3=O)nn2)cc1)N1CC[C@H](O)C1 [A182, 6-fluoro-3-{1-[4-((S)-3-hydroxy-pyrrolidine-1-carbonyl)-phenyl]-1H-[1,2,3]triazol-4-yl}-1H-quinolin-2-one] |
| 7.59 | 8.12 | O=C(c1ccc(-n2cc(-c3cc4cc(F)ccc4[nH]c3=O)nn2)cc1)N1CCC(O)CC1 [A183, 6-fluoro-3-{1-[4-(4-hydroxy-piperidine-1-carbonyl)-phenyl]-1H-[1,2,3]triazol-4-yl}-1H-quinolin-2-one] |
| 7.96 | 7.74 | O=C(c1ccc(-n2cc(-c3cc4cc(F)ccc4[nH]c3=O)nn2)cc1)N1CCCC(O)C1 (stereo not shown) [A184, 6-fluoro-3-{1-[4-(3-hydroxy-piperidine-1-carbonyl)-phenyl]-1H-[1,2,3]triazol-4-yl}-1H-quinolin-2-one] |
| 7.12 | 7.44 | CCN(CC)CCNC(=O)c1ccc(-n2cc(-c3cc4cc(F)c(F)cc4[nH]c3=O)nn2)cc1 [A187, N-(2-diethylamino-ethyl)-4-[4-(6,7-difluoro-2-oxo-1,2-dihydro-quinolin-3-yl)-[1,2,3]triazol-1-yl]-benzamide] |
| 5.80 | 7.59 | CCN(CC)CCNC(=O)c1ccc(-n2cc(-c3cc4cc(F)c(Cl)cc4[nH]c3=O)nn2)cc1 [A188, 4-[4-(7-chloro-6-fluoro-2-oxo-1,2-dihydro-quinolin-3-yl)-[1,2,3]triazol-1-yl]-N-(2-diethylamino-ethyl)-benzamide] |
| 6.37 | 6.96 | CCN(CC)CCN1CCN(C(=O)c2ccc(-n3cc(-c4cc5cc(F)c(F)cc5[nH]c4=O)nn3)cc2)CC1 [A189, 3-(1-{4-[4-(2-diethylamino-ethyl)-piperazine-1-carbonyl]-phenyl}-1H-[1,2,3]triazol-4-yl)-6,7-difluoro-1H-quinolin-2-one] |
| 7.19 | 8.01 | COC1CCN(C(=O)c2ccc(-n3cc(-c4cc5cc(F)ccc5[nH]c4=O)nn3)cc2)CC1 [A190, 6-fluoro-3-{1-[4-(4-methoxy-piperidine-1-carbonyl)-phenyl]-1H-[1,2,3]triazol-4-yl}-1H-quinolin-2-one] |
| 6.62 | 7.82 | COC1CCN(C(=O)c2ccc(-n3cc(-c4cc5cc(F)c(F)cc5[nH]c4=O)nn3)cc2)CC1 [A191, 6,7-difluoro-3-{1-[4-(4-methoxy-piperidine-1-carbonyl)-phenyl]-1H-[1,2,3]triazol-4-yl}-1H-quinolin-2-one] |
| 6.70 | 6.64 | CO[C@@H]1CCCN(C(=O)c2ccc(-n3cc(-c4cc5cc(F)c(F)cc5[nH]c4=O)nn3)cc2)C1 [A192, 6,7-difluoro-3-{1-[4-((R)-3-methoxy-piperidine-1-carbonyl)-phenyl]-1H-[1,2,3]triazol-4-yl}-1H-quinolin-2-one] |
| 6.70 | 6.64 | CO[C@H]1CCCN(C(=O)c2ccc(-n3cc(-c4cc5cc(F)c(F)cc5[nH]c4=O)nn3)cc2)C1 [A193, 6,7-difluoro-3-{1-[4-((S)-3-methoxy-piperidine-1-carbonyl)-phenyl]-1H-[1,2,3]triazol-4-yl}-1H-quinolin-2-one] |
| 7.04 | 7.31 | CO[C@@H]1CCCN(C(=O)c2ccc(-n3cc(-c4cc5cc(F)ccc5[nH]c4=O)nn3)cc2)C1 [A194, 6-fluoro-3-{1-[4-((R)-3-methoxy-piperidine-1-carbonyl)-phenyl]-1H-[1,2,3]triazol-4-yl}-1H-quinolin-2-one] |
| 7.03 | 7.17 | CO[C@H]1CCCN(C(=O)c2ccc(-n3cc(-c4cc5cc(F)ccc5[nH]c4=O)nn3)cc2)C1 [A195, 6-fluoro-3-{1-[4-((S)-3-methoxy-piperidine-1-carbonyl)-phenyl]-1H-[1,2,3]triazol-4-yl}-1H-quinolin-2-one] |
| 6.96 | 7.36 | CCN(CC)CCNC(=O)c1ccc(-n2cc(-c3cc4cc(F)ccc4[nH]c3=O)nn2)cc1 [A196, N-(2-diethylamino-ethyl)-4-[4-(6-fluoro-2-oxo-1,2-dihydro-quinolin-3-yl)-[1,2,3]triazol-1-yl]-benzamide] |
| 7.49 | 7.55 | O=C(c1ccc(-n2cc(-c3cc4cc(F)ccc4[nH]c3=O)nn2)cc1)N1CCC[C@H]1CO [A197, 6-fluoro-3-{1-[4-((S)-2-hydroxymethyl-pyrrolidine-1-carbonyl)-phenyl]-1H-[1,2,3]triazol-4-yl}-1H-quinolin-2-one] |
